Entries after “also recorded” stand apart in the source; their conditions may differ. Like-named read-outs stand apart in the source and are kept apart here.

Data set [1] concerns Isogenic HCT-116 colon cancer cell lines. Put plainly: cells. Type of data set: cell-based.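 Also: cells grown in 96-well plates in McCoy's 5A medium with 10% FBS, exposed to compound for 4 days.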
Method: Cells were seeded in 96-well flat bottom cell culture plates at a density of 2−3×10^3 cells/well with compounds and incubated for 4 days.
Data set [2] has as its system cancer cell lines with wild-type p53 / mutated or deleted p53 (ATCC). Put plainly: Cell growth assay (WST-8), other cancer cell lines. Type of data set: cell-based. In general terms: Tetrazolium dyes change colour on reduction, which living cells bring about.
Data set [3] can be described thus: In vitro microsomal stability, rat. Type of data set: in vitro ADME.
Data set [4] can be described thus: In vitro microsomal stability, human. Type of data set: in vitro ADME.
Another data set concerns SJSA-1 xenograft tumors. The data set is described as follows: In vivo efficacy, SJSA-1 xenograft model (tumor volume). On the set-up: species or system C.B-17 SCID mice. Particulars: for % Tumor Growth Inhib. T/C Control 750 mm^3 D24: Exp. No. 2, SJSA-1 xenograft; for % Tumor Growth Inhib. T/C Control 750 mm^3 D29: Exp. No. 3, SJSA-1 xenograft.
Data set [5] is described as follows: Animal weight in SJSA-1 xenograft studies. Type of data set: in vivo, C.B-17 SCID mice. Particulars: SJSA-1 xenograft mice. The procedure: The size of tumors growing in the mice was measured in two dimensions using calipers. Tumor volume (mm^3)=(A×B2)/2 where A and B are the tumor length and width (in mm), respectively. During treatment, tumor volume and body weight was measured three times a week. After the treatment was stopped, tumor volume (FIGS. 7, 9, 11, and 36) and body weight (FIGS. 8, 10, 12, and 37) was measured at least once a week. Mice were kept for an additional 60 days for further observation of tumor growth and toxicity.
Before treatment began, tumors were allowed to grow to 60-140 mm^3 in volume, at which point the blood vessel supplies to the tumor should have been established. Mice with tumors within acceptable size range were randomized into treatment groups of 8 mice for experimental compounds and 10 mice for the Control group. Experimental compounds were given orally, once per day for 2-3 weeks. The Control group received vehicle alone (10% PEG 400: 3% Cremophor: 87% PBS).

The nature of data set [6]: Pharmacokinetic studies in rats. Type of data set: in vivo, rat. Particulars: for oral bioavailability / oral pharmacokinetics in rats (in words): oral dosing. The procedure:
Pharmacokinetic studies on MDM2 inhibitors were carried out in rat. For comparison, the MDM2 inhibitor, AT-219, was also studied.

Data set [7] deals with recombinant human His-tagged MDM2 protein (residues 1-118) (Homo sapiens (Human), UniProt Q00987). The data set is described as follows: Fluorescence-polarization MDM2 binding assay.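 As to all read-outs here: fluorescence polarization read after three hours of incubation in potassium phosphate buffer containing bovine gamma globulin and Triton X-100.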 Particulars: for IC50: Table 19A, FP binding assay, read-out: MDM2 IC50.
recombinant human His-tagged MDM2 protein (residues 1-118), sequence (Q00987 1-118): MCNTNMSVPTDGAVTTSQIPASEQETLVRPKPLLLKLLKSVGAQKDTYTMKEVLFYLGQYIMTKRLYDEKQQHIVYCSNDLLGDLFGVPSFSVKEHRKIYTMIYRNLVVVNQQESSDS
The mark [8] stands for this setting: Homo sapiens, HCT-116, read-out: HCT-116 (p53 wild-type) IC50.
Where [9] appears, read: Homo sapiens, LNCaP, read-out: LNCAP (p53 wild-type) IC50.
Setting [10] is: Homo sapiens, SJSA-1, read-out: SJSA-1 (p53 wild-type) IC50.
Where [11] appears, read: rat, IV, 5 mg/kg, plasma, parent compound.

Method for SJSA-1 xenograft tumors: SJSA-1 tumor cells were harvested with Trypsin (0.05%)-EDTA (0.53 mM) (GIBCO™, Invitrogen Corp.), growth medium added and cells placed on ice. A cell sample was mixed 1:1 with Trypan Blue (GIBCO™, Invitrogen Corp.) and counted on a hemocytometer to determine the number of live/dead cells. Cells were washed once with 1×PBS (GIBCO™, Invitrogen Corp.) and resuspended in PBS. For Matrigel injections, after washing in PBS, cells are resuspended in an ice cold mixture of 1:1 PBS and Matrigel (BD Biosciences, Invitrogen Corp.) for a final Matrigel protein concentration of 5 mg/ml. SJSA-1 tumors were inoculated into C.B-17 SCID mice at 5×10^6 cells in 0.1 ml with Matrigel. Cells were injected s.c. into the flank region of each mouse using a 27 gauge needle.
The size of tumors growing in the mice was measured in two dimensions using calipers. Tumor volume (mm^3)=(A×B2)/2 where A and B are the tumor length and width (in mm), respectively. During treatment, tumor volume and body weight was measured three times a week. […] Mice were kept for an additional 60 days for further observation of tumor growth and toxicity.

Take `CC(C)(C)C[C@H]1N[C@@H](C(=O)N[C@H]2C[C@@H](O)C2)[C@H](c2cccc(Cl)c2F)[C@@]12C(=O)Nc1cc(Cl)ccc12` (stereo in doubt) [MI-519-63]: the IC50 amounted to 2 µM in data set [1] (setting [8]), 2.3 µM in data set [2] (setting [9]) and 2.1 µM in data set [2] (setting [10]). For the same molecule, the “% of compound remaining when incubated in rat liver microsomes with NADPH” value in data set [3] (0 min) came to 100%; in data set [3] (5 min) it was 66.01%; in data set [3] (10 min), 53.79%; in data set [3] (15 min), 46.44%; in data set [3] (30 min) it was 29.41%; in data set [3] (45 min), 27.72%. The “% of compound remaining when incubated in rat liver microsomes with NADPH” value in data set [3] (60 min) came to 23.28%. For the same molecule, the “microsomal stability (in words)” value in data set [3] (rat liver microsomes) and in data set [4] (human liver microsomes) was “comparable microsomal stability to MI-219” throughout. Further, the “% of compound remaining when incubated in human liver microsomes with NADPH” value was found to be 100.00% in data set [4] (0 min); 77.75% in data set [4] (5 min); 59.66% in data set [4] (10 min); 50.42% in data set [4] (15 min); 31.21% in data set [4] (30 min); 26.74% in data set [4] (45 min). In data set [4] (60 min), the “% of compound remaining when incubated in human liver microsomes with NADPH” value was found to be 21.5%. Besides, the “% Tumor Growth Inhib. T/C Control 750 mm^3 D24” value in the data set with SJSA-1 xenograft tumors (PO 100 mg/kg) amounted to 0.0%. In data set [5], the “weight loss in the animals (in words)” value is “without significant weight loss”.

On to `CC(C)(C)C[C@H]1N[C@@H](C(=O)N[C@H]2C[C@@](C)(O)C2)[C@H](c2cccc(Cl)c2F)[C@@]12C(=O)Nc1cc(Cl)ccc12` [MI-519-64], for which the IC50 in data set [1] (Homo sapiens, HCT-116, read-out: HCT-116 (p53-/-) IC50) was greater than 10 µM; in data set [1] (setting [8]) it was less than 1 µM; in data set [2] (setting [9]), less than 1 µM; in data set [2] (setting [10]), less than 1 µM. Also, in data set [2], the “cell growth inhibition (in words)” value is recorded as “more potent than its epimer MI-519-65; also recorded: effectively inhibit cancer cell growth”. For the same molecule, the “% of compound remaining when incubated in rat liver microsomes with NADPH” value was found to be 100% in data set [3] (0 min); 71.95% in data set [3] (5 min); 64.86% in data set [3] (10 min); 48.47% in data set [3] (15 min); 43.38% in data set [3] (30 min); 41.19% in data set [3] (45 min). The “% of compound remaining when incubated in rat liver microsomes with NADPH” value in data set [3] (60 min) amounted to 43.03%. Moreover, the “% of compound remaining when incubated in human liver microsomes with NADPH” value in data set [4] (0 min) came out at 100%; in data set [4] (5 min), 83.66%; in data set [4] (10 min), 80.61%; in data set [4] (15 min) it was 65.86%; in data set [4] (30 min) it was 61.26%; in data set [4] (45 min), 55.9%. Besides, the “% of compound remaining when incubated in human liver microsomes with NADPH” value in data set [4] (60 min) is reported as 53.21%. Besides, the CLz in data set [6] (setting [11]) was 30 mL/min/kg. Moreover, the Vd in data set [6] (rat, plasma, iv, 5 mg/kg, rat, IV, 5 mg/kg, plasma, parent compound, read-out: Vz) was determined as 9 L/kg. In addition, the “% Tumor Growth Inhib. T/C Control 750 mm^3 D29” value in the data set on SJSA-1 xenograft tumors (PO 30 mg/kg) came to 20.7%; in the data set with SJSA-1 xenograft tumors (PO 100 mg/kg), 5.3%. The “weight loss in the animals (in words)” value in data set [5] is recorded as “without significant weight loss”.

Regarding `CC(C)(C)C[C@H]1N[C@@H](C(=O)NC2CCC(NS(C)(=O)=O)CC2)[C@H](c2cccc(Cl)c2F)[C@@]12C(=O)Nc1cc(Cl)ccc12` (stereo partly drawn) [MI-772], the IC50 in data set [7] was less than 1 µM; in data set [1] (read-out: HCT-116 (p53-/-) IC50, Table 19A, HCT-116 p53-/-, cell growth), greater than 5 µM; in data set [1] (read-out: HCT-116 (p53 wild-type) IC50, Table 19A, HCT-116 p53 wild-type, cell growth), less than 1 µM; in data set [2] (Table 19A, LNCAP cells, p53 wild-type, cell growth, read-out: LNCAP (p53 wild-type) IC50) it was less than 1 µM; in data set [2] (Table 19A, PC-3 cells, deleted p53, cell growth, read-out: PC-3 (deleted p53) IC50) it was greater than 5 µM; in data set [2] (Table 19A, SJSA-1 cells, p53 wild-type, cell growth, read-out: SJSA-1 (p53 wild-type) IC50) it was less than 1 µM. In addition, in data set [7] (human MDM2 protein), the “binding to MDM2 (in words)” value is “high affinities”. Moreover, the “relative potency vs epimer, binding and cellular studies (in words)” value in data set [2] was “several times more potent than MI-771”. In data set [2] (cancer cell lines with wild-type p53), the “cell growth inhibition (in words)” value was “effectively inhibit cell growth”. The “microsomal stability (in words)” value in data set [3] (rat liver microsomes) and in data set [4] (human liver microsomes) was “very stable” each time. Moreover, the t1/2 in data set [3] (rat liver microsomes with NADPH) and in data set [4] (human liver microsomes with NADPH) was greater than 1 h each time. Moreover, the “% of compound remaining when incubated in rat liver microsomes with NADPH” value was 100.00% in data set [3] (rat liver microsomes, NADPH, 0 min); 93.46% in data set [3] (rat liver microsomes, NADPH, 5 min); 91.15% in data set [3] (rat liver microsomes, NADPH, 10 min); 89.04% in data set [3] (rat liver microsomes, NADPH, 15 min); 88.27% in data set [3] (rat liver microsomes, NADPH, 30 min); 78.65% in data set [3] (rat liver microsomes, NADPH, 45 min). Besides, in data set [3] (rat liver microsomes, NADPH, 60 min), the “% of compound remaining when incubated in rat liver microsomes with NADPH” value was 75.96%. For the same molecule, the “% of compound remaining when incubated in human liver microsomes with NADPH” value in data set [4] (human liver microsomes, NADPH, 0 min) was found to be 100.00%; in data set [4] (human liver microsomes, NADPH, 5 min), 95.37%; in data set [4] (human liver microsomes, NADPH, 10 min) it was 86.87%; in data set [4] (human liver microsomes, NADPH, 15 min), 82.24%; in data set [4] (human liver microsomes, NADPH, 30 min) it was 77.91%; in data set [4] (human liver microsomes, NADPH, 45 min) it was 63.28%. The “% of compound remaining when incubated in human liver microsomes with NADPH” value in data set [4] (human liver microsomes, NADPH, 60 min) is given as 56.87%. Further, the “oral bioavailability / oral pharmacokinetics in rats (in words)” value in data set [6] (rats) is “modest oral bioavailability”. In addition, in data set [6] (setting [11]), the CLz came out at 16.7 mL/min/kg. Further, the Vz (commonly the apparent volume that relates the amount in the body to the concentration in plasma or blood) in data set [6] (setting [11]) was 10.9 L/kg. In addition, in data set [6] (rats, intravenous and oral), the “half-life in rats (in words)” value is given as “long plasma half-life”. In addition, the “% Tumor Growth Inhib. T/C Control 750 mm^3 D24” value in the data set with SJSA-1 xenograft tumors (PO 100 mg/kg) came out at 71.1%.

As for `C[C@H](N)C(=O)OC1CCC(NC(=O)[C@@H]2N[C@H](CC(C)(C)C)[C@]3(C(=O)Nc4cc(Cl)ccc43)[C@H]2c2cccc(Cl)c2F)CC1` (stereo partly drawn) [MI-774], the IC50 in data set [7] is less than 0.1 µM; in data set [1] (Homo sapiens, HCT-116, read-out: HCT-116 (p53-/-) IC50, Table 19A, HCT-116 p53-/-, cell growth) it was 5.6 µM; in data set [1] (Homo sapiens, HCT-116, read-out: HCT-116 (p53 wild-type) IC50, Table 19A, HCT-116 p53 wild-type, cell growth) it was 0.3 ± 0.1 µM; in data set [2] (Homo sapiens, LNCaP, Table 19A, LNCAP cells, p53 wild-type, cell growth, read-out: LNCAP (p53 wild-type) IC50), 0.3 µM; in data set [2] (Homo sapiens, SJSA-1, Table 19A, SJSA-1 cells, p53 wild-type, cell growth, read-out: SJSA-1 (p53 wild-type) IC50), 0.3 ± 0.1 µM. In addition, the “oral bioavailability / oral pharmacokinetics in rats (in words)” value in data set [6] (rats) was “good oral bioavailability”. In addition, the “% Tumor Growth Inhib. T/C Control 750 mm^3 D24” value with SJSA-1 xenograft tumors (PO 100 mg/kg) came out at 21.4%.

The record behind these values is patent US9079913B2, “Spiro-oxindole MDM2 antagonists” (The Regents of the University of Michigan, priority 2009, dated 2015).
